Six sequences from patent publication US20260265771A1, “METHODS OF INCREASING THE REGENERATION EFFICIENCY IN PLANTS” (Institute of Genetics and Developmental Biology Chinese …, priority 2022, published 2026) can be followed below.

Entries after “also recorded” stand apart in the source; their conditions may differ.

For test [1], the system named is young embryos of B104 and Chang 7-2. As to the kind of experiment: Shoot regeneration of maize young embryos. Format: cell-based. How it is done:
Young embryos of B104 and Chang 7-2 were treated with 0, 0.1 or 1 nM of ZmREF1. For both B-104 and Chan 7-2 shoot regeneration frequency was increased when ZmREF1 was applied, for B-104 this was greatest at 1 nM, however, for Chan 7-2 this was greatest at 0.1 nM, as shown in FIG. 52.

For test [2], the system named is hypocotyl explants of cotton. As to the kind of experiment: Callus formation of cotton hypocotyl explants on CIM. Format: cell-based. How it is done: (a) photos of cotton grown in the presence of 0.1 nM, 1 nM 10 nM, 100 nM 500 nM GaREF1 or absence of GaREF1 (mock), (b) Hypocotyl explants of cotton were cultured on callus-inducing medium (CIM) containing indicated concentrations of GaREF1, and callus phenotype was scored at 14 days after incubation. Box plots represent the distribution of projected callus area. The projected area of callus was quantified by Image J. Individual values (black dots) are shown and error bars represent SD from three independent experiments. ***P<0.001, **P<0.01, *P<0.05 (Student's t-test).
The cotton SIPEP (REF1) orthologue (GaREF1) was investigated to establish its effect on cotton regenerative capacity.

For a further test, the system named is mature seeds of ZH11. The test is described as follows: Callus formation of rice mature seeds on CIM. The class given is cell-based, Oryza sativa. The note with it: for callus formation capacity, increase: 20 days. How it is done:
Mature seeds of ZH11 were cultured on CIM containing indicated concentrations of OsREF1. (a) photos of ZH11 grown in presence of 1 nM and 10 nM OsREF1 or in the absence of OsREF1 (mock). (b) callus phenotype was scored 20 days after incubation on CIM. Callus formation capacity was represented by the percentage of mature seed explants with regenerated embryonic calli. Data are mean±SD of three independent experiments.
Mature seeds of ZH11 were cultured on CIM containing indicated concentrations of OsREF1 (1 nM and 10 nM). As shown in FIG. 27A calluses formed that were larger in the presence of OsREF1 than in the absence of OsREF1.

The test system of test [3] is ZH11, Nipponbare and 9311 rice. The test is described as follows: Shoot regeneration of rice on SIM. Format: cell-based, Oryza sativa. The following applies: for shoot regeneration: SIM, 10 nM; for shoot regeneration capacity, increase: 10 nM OsREF1 vs absence. How it is done:
ZH11 was cultured on SIM containing indicated concentrations of OsREF1. (a) photos of ZH11 grown in presence of 0 nM and 10 nM OsREF1. (b) shoot regeneration capacity of ZH11 grown in with either 0 nM or 10 nM OsREF1.
Nipponbare was cultured on SIM containing indicated concentrations of OsREF1. (a) photos of nipponbare grown in presence of 0 nM and 10 nM OsREF1. (b) shoot regeneration capacity of nipponbare grown in with either 0 nM or 10 nM OsREF1.
9311 rice was cultured on SIM containing indicated concentrations of OsREF1. (a) photos of 9311 rice grown in presence of 0 nM and 10 nM OsREF1. (b) shoot regeneration capacity of 9311 rice grown in with either 0 nM or 10 nM OsREF1.
Shoot regeneration was investigated in ZH11 and Nipponbare Japonica rice as well as 9311 indica rice. OsREF1 promoted shoot generation in all three of these rice varieties.

Test [4] concerns wild allotetraploid rice (L-04). The test is described as follows: Growth (primary root length) of wild allotetraploid rice. The note with it: L-04, 10 nM OsREF1 vs mock. Format: in vivo. How it is done: L-04 rice was grown in the presence of 10 nM OsREF1 or in the absence of OsREF1 (mock). (a) photos of L-04 rice grown in presence the of 10 nM OsREF1 or absence of OsREF1 (mock). (b) primary root length of L-04 rice grown in the presence of 10 nM OsREF1 or absence of OsREF1 (mock).

Test [5] shares this test system. As to the kind of experiment: Shoot regeneration of wild allotetraploid rice. Format: cell-based. How it is done:
(a) images of L-04 rice grown in the presence of 10 nM OsREF1 or absence of OsREF1 (mock). (b) regeneration frequency of L-04 rice grown in the presence of 10 nM OsREF1 or absence of OsREF1.

Test [6] has as its system seeds of wild allotetraploid rice L-04. As to the kind of experiment: Callus formation of wild allotetraploid rice seeds on CIM. The class given is cell-based. The note with it: for callus formation capacity, increase: vs absence. How it is done: L-04 rice was grown in the presence of 10 nM or 1 nM OsREF1 or in the absence of OsREF1 (mock). (a) photos of L-04 rice grown in presence the of 10 nM, 1 nM OsREF1 or absence of OsREF1 (mock). (b) callus formation capacity of L-04 rice grown in the presence of 10 nM, 1 nM OsREF1 or absence of OsREF1 (mock).
Seeds of wild allotetraploid rice L-04 were cultured on CIM containing indicated concentrations of OsREF1 (1 nM and 10 nM) for 20 days.

Test [7] has as its system leaves of peach cultivar GF677. As to the kind of experiment: Callus formation of peach leaves on CIM. Format: cell-based. How it is done:
(a) photos of peach cultivar GF677 grown on a CIM in the presence of 100 nM PpREF1 and in the absence of PpREF1 (mock). (b) callus formation capacity of peach cultivar […] grown on a CIM in the presence 100 nM PpREF1 and in the absence of PpREF1 (mock) after 24 days. Callus formation capacity was represented by the percentage of leaves explants with regenerated embryonic calli. Data are mean±SD of three independent experiments.
Leaves of peach cultivar GF677 were cultured on CIM containing indicated concentrations of PpREF1, and callus phenotype was scored at 24 days after incubation on CIM. Callus formation capacity was represented by the percentage of leaves explants with regenerated embryonic calli. Data are mean±SD of three independent experiments. Callus formation capacity was increased by 10-fold in peach cultivar GF677 leaves grown in the presence of 100 nM PpREF1 compared to leaves grown in the absence of PpREF1.

The test system of another test is wheat. The test is described as follows: Root and shoot growth of wheat. Format: in vivo. The following applies: 100 nM TaREF1 vs absence. The text has this: (a) photos of wheat grown in the presence of 100 nm TaREF1, or in the absence of TaREF1 (mock). (b) primary root length in wheat grown in the presence of 100 nm TaREF1, or in the absence of TaREF1 (mock). (c) shoot length of wheat grown in the presence of 100 nm TaREF1, or in the absence of TaREF1 (mock).
The wheat SIPEP (REF1) orthologue (TaREF1) was investigated to establish whether REF1 can increase the regenerative capacity in wheat.

Test [8] has as its system Chinese Spring and JM22 wheat. The test is described as follows: Callus formation of wheat immature embryos on CIM. The class given is cell-based. The note with it: exogenous TaREF1. How it is done:
(a) photos of Chinese Spring wheat grown in the presence or 0 nM, 0.01 nM or 0.1 nM TaREF1. (b) immature embryos of Chinese Spring were cultured on CIM containing indicated concentrations of TaREF1, and callus phenotype was scored at 14 days after incubation on CIM. Callus formation capacity was represented by the percentage of immature embryo explants with regenerated embryonic calli. Data are mean±SD of three independent experiments.
(§1) TaREF1 was also shown to increase the callus formation capacity of Chinese spring wheat when applied exogenously (FIG. 43) and JM22 wheat (FIG. 54).

Test [9] has as its system Chinese Spring, Kn199 and JM22 wheat. As to the kind of experiment: Shoot regeneration of wheat. Format: cell-based. How it is done: (a) photos of Kn199 wheat grown in the presence of 0.01 nM or 1 nM TaREF1 or absence of TaREF1 (mock). (b) photos of Kn199 wheat grown in the presence of 0.01 nM or 1 nM TaREF1 or absence of TaREF1.
as §1
Shoot regeneration frequency was established by calculating the average number of shoots, in the context of the present invention shoot regenerative capacity refers to the number of shoots per explant in each condition.

Another test relates to sunflower explants. The test is described as follows: Shoot regeneration of sunflower cotyledon explants. Format: cell-based. How it is done:
(A) The shoot regenerative capacity was represented by the relative frequency of explants with the regenerated shoots. (B) The shoot regenerative capacity was represented by the number of explants with different number of regenerated shoots. Bars show mean±SD. ***P<0.001, **P<0.01, *P<0.05 (Student's t-test). (C) photos of sunflower plants grown in the presence of 1 nM HaREF1, 10 nM HaREF1 or absence of HaREF1 (mock).
The sunflower SIPEP (REF1) orthologue (HanREF1) was investigated to establish its effect on sunflower regenerative capacity.
For the regeneration protocol we referred to Radonic et al., 2015. The explant used in the sunflower regeneration assay was cotyledon.
Shoot regeneration frequency was established by calculating the average number of shoots, in the context of the present invention shoot regenerative capacity refers to the number of shoots per explant in each treatment.

As to “RRPRPRPPDHAREGSGGNGGVHH (Zea mays) [ZmREF1]”, the “concentration with greatest shoot regeneration frequency” value is on record as 1 nM in test [1] (B-104) and 0.1 nM in test [1] (Chan 7-2). Moreover, the shoot regeneration frequency result in test [1] (B-104 and Chan 7-2, 0.1 or 1 nM ZmREF1 vs 0) was “increased; also recorded: promotes shoot regeneration”.

On to “LPMVSLFTPKRPGTSAGSGPQIN (listed as Gossypium arboreum) [GaREF1]”, for which the “relative callus area, concentration dependence” value in test [2] (0.1-500 nM GaREF1) is listed as “increasing as concentration of GaREF1 is increased”. For the same sequence, in [2] (presence vs absence of GaREF1, 14 days), the “relative callus area / callus formation” value is “increased; also recorded: promotes callus formation”.

For “DDSKPTGPGAPAEGSGGDGGAIH (listed as Oryza sativa) [OsREF1]”, the “callus formation capacity, increase” value in the test with mature seeds of ZH11 (ZH11, 1 nM OsREF1 vs absence) was ~ 2 fold; in the test on mature seeds of ZH11 (ZH11, 10 nM OsREF1 vs absence), ~ 3 fold; in [6] (L-04, 1 nM OsREF1, 20 days), ~ 7.4 fold; in [6] (L-04, 10 nM OsREF1, 20 days) it was ~ 8.9 fold. The callus formation is “larger; also recorded: promotes callus formation” in the test with mature seeds of ZH11 (ZH11 Japonica rice, presence vs absence of OsREF1) and “promotes callus formation” in test [6] (L-04, 1 or 10 nM OsREF1 vs mock). For the same sequence, the shoot regeneration result was “promotes shoot regeneration” in test [3] (9311 indica rice); “promotes shoot regeneration” in test [3] (Nipponbare Japonica rice); “promotes shoot regeneration” in test [3] (ZH11 Japonica rice); “promotes shoot regeneration” in test [5] (L-04, 10 nM OsREF1 vs mock). For the same sequence, the “shoot regeneration capacity, increase” value in [3] (9311 rice) is on record as ~ 3.5 fold; in test [3] (Nipponbare rice) it was ~ 4 fold; in test [3] (ZH11 rice), ~ 4 fold. The growth entry in test [4] is “promotes the growth”. The primary root length result in test [4] is on record as “significantly increased”. For the same sequence, in test [5] (L-04, 10 nM OsREF1 vs absence), the “shoot regeneration frequency, increase” value was ~ 12.2 fold.

Regarding “KRPRITLRAARPEISTGSGAQTN (listed as Prunus persica) [PpREF1]”, in test [7] (GF677, 100 nM PpREF1 vs mock), the callus formation is on record as “promotes callus formation”. The “callus formation capacity, increase” value in test [7] (GF677 leaves, 100 nM PpREF1 vs absence, 24 days) was 10 fold.

With “AVRRPRPPGNPREGRGGGGGSHN (listed as Triticum aestivum) [TaREF1]”, in the test on wheat, the root length entry is “increased; also recorded: promotes root and shoot growth”. Further, the shoot length entry in the test on wheat was “increased; also recorded: promotes root and shoot growth”. In addition, the callus formation capacity in test [8] (Chinese spring wheat) is recorded as “increase”; in [8] (JM22 wheat), “increase; also recorded: promotes callus formation”. The shoot regeneration result in test [9] (Chinese Spring wheat), in test [9] (JM22 wheat) and in test [9] (Kn199 wheat) was “promotes shoot regeneration” throughout.

“RRLTRRPPPPRGPISSGGGGQTN (listed as Helianthus annuus) [HanREF1]”: the “shoot regeneration, increase” value in the test on sunflower explants (1 nM HanREF1 vs absence) is listed as ~ 2.1 fold; in the test on sunflower explants (10 nM HanREF1 vs absence), ~ 4.5 fold. The shoot regeneration result with sunflower explants (1 or 10 nM vs mock) is “promotes shoot regeneration”.
